Measurements taken from BindingDB's records for doi:10.1016/S0960-894X(97)00319-3 (1997).

Assay: Inhibition of [125I]ET1 binding to porcine kidney inner medulla membranes

CCc1ccc2c(c1)c(-c1ccc3c(c1)OCO3)c(C(=O)O)c(=O)n2Cc1ccccc1OC [4-Benzo[1,3]dioxol-5-yl-6-ethyl-1-(2-methoxy-benzyl)-2-oxo-1,2-dihydro-quinoline-3-carboxylic acid]
IC50: 1300 nM

COc1ccccc1Cn1c(=O)c(C(=O)O)c(-c2ccc3c(c2)OCO3)c2c(OC)c(OC)ccc21 [4-Benzo[1,3]dioxol-5-yl-5,6-dimethoxy-1-(2-methoxy-benzyl)-2-oxo-1,2-dihydro-quinoline-3-carboxylic acid]
IC50: 2600 nM

CCOc1ccc2c(c1)c(-c1ccc3c(c1)OCO3)c(C(=O)O)c(=O)n2Cc1ccccc1OC [4-Benzo[1,3]dioxol-5-yl-6-ethoxy-1-(2-methoxy-benzyl)-2-oxo-1,2-dihydro-quinoline-3-carboxylic acid]
IC50: 450 nM

COc1ccc(Cn2c(=O)c(C(=O)O)c(-c3ccc4c(c3)OCO4)c3ccccc32)cc1 [4-Benzo[1,3]dioxol-5-yl-1-(4-methoxy-benzyl)-2-oxo-1,2-dihydro-quinoline-3-carboxylic acid]
IC50: 6800 nM

CCOc1ccc2c(c1)c(-c1ccc(OC)cc1)c(C(=O)O)c(=O)n2Cc1cc(OC)ccc1OC [1-(2,5-Dimethoxy-benzyl)-6-ethoxy-4-(4-methoxy-phenyl)-2-oxo-1,2-dihydro-quinoline-3-carboxylic acid]
IC50: 200 nM

COc1ccccc1Cn1c(=O)c(C(=O)O)c(-c2ccc3c(c2)OCO3)c2ccccc21 [4-Benzo[1,3]dioxol-5-yl-1-(2-methoxy-benzyl)-2-oxo-1,2-dihydro-quinoline-3-carboxylic acid]
IC50: 940 nM

CCOc1ccc2c(c1)c(-c1ccc(OC)cc1)c(C(=O)O)c(=O)n2Cc1ccccc1OC [6-Ethoxy-1-(2-methoxy-benzyl)-4-(4-methoxy-phenyl)-2-oxo-1,2-dihydro-quinoline-3-carboxylic acid]
IC50: 500 nM

CCOc1ccc2c(c1)c(-c1ccc(OC)cc1OC)c(C(=O)O)c(=O)n2Cc1ccccc1OC [4-(2,4-Dimethoxy-phenyl)-6-ethoxy-1-(2-methoxy-benzyl)-2-oxo-1,2-dihydro-quinoline-3-carboxylic acid]
IC50: 540 nM

O=C(O)c1c(-c2ccc3c(c2)OCO3)c2ccccc2n(Cc2ccccc2)c1=O [4-Benzo[1,3]dioxol-5-yl-1-benzyl-2-oxo-1,2-dihydro-quinoline-3-carboxylic acid]
IC50: > 10000 nM
